Test results as given in the NIST ThermoML archive (doi:10.1021/je900131q).
Several values for one entry are separate records, joined by “and”; a condition that tells them apart may be missing. Equal values may be shown once. ± gives the expanded uncertainty stated by the source.

Conditions: Fluid (supercritical or subcritical phases); for mass density: Buoyancy - hydrostatic balance with magnetic suspension - one sinker; for viscosity: Vibrating wire viscometer

[He] [helium]
Conditions | mass density | viscosity [mPa·s]
293.13 K, 27527 kPa | 39.805 ± 0.088 kg/m3 | 0.01975 ± 0.00012
293.14 K, 2446 kPa | 3.967 ± 0.0092 kg/m3 | 0.01958 ± 0.00012
293.14 K, 16374 kPa | 24.912 ± 0.055 kg/m3 | 0.01958 ± 0.00012
293.14 K, 20744 kPa | 30.969 ± 0.068 kg/m3 | 0.01962 ± 0.00012
293.14 K, 27529 kPa | 39.804 ± 0.087 kg/m3 | 0.01975 ± 0.00012
293.15 K, 122.25 kPa | 0.19885 ± 0.0024 kg/m3 | 0.01954 ± 0.00012
293.15 K, 245.73 kPa | 0.40368 ± 0.0024 kg/m3 | 0.01958 ± 0.00012
293.15 K, 366.51 kPa | 0.59858 ± 0.0026 kg/m3 | 0.01959 ± 0.00012
293.15 K, 366.53 kPa | 0.60087 ± 0.0026 kg/m3 | 0.01959 ± 0.00012
293.15 K, 482.99 kPa | 0.79042 ± 0.0028 kg/m3 | 0.01959 ± 0.00012
293.15 K, 483 kPa | 0.79119 ± 0.0028 kg/m3 | 0.01959 ± 0.00012
293.15 K, 1219.9 kPa | 1.9866 ± 0.005 kg/m3 | 0.01959 ± 0.00012
293.15 K, 1827.5 kPa | 2.9695 ± 0.0071 kg/m3 | 0.01958 ± 0.00012
293.15 K, 1827.6 kPa | 2.9711 ± 0.0071 kg/m3 | 0.01958 ± 0.00012
293.15 K, 2466.2 kPa | 3.9699 ± 0.0083 kg/m3 | 0.01958 ± 0.00012
293.15 K, 3714.2 kPa | 5.9819 ± 0.014 kg/m3 | 0.01957 ± 0.00012
293.15 K, 3714.3 kPa | 5.9857 ± 0.014 kg/m3 | 0.01956 ± 0.00012
293.15 K, 4978.6 kPa | 7.974 ± 0.018 kg/m3 | 0.01956 ± 0.00012
293.15 K, 4978.7 kPa | 7.9747 ± 0.018 kg/m3 | 0.01956 ± 0.00012
293.15 K, 4995.9 kPa | 7.9672 ± 0.018 kg/m3 | 0.01957 ± 0.00012
293.15 K, 7564.1 kPa | 11.972 ± 0.027 kg/m3 | 0.01955 ± 0.00012
293.15 K, 7564.2 kPa | 11.972 ± 0.027 kg/m3 | 0.01955 ± 0.00012
293.15 K, 8842.9 kPa | 13.917 ± 0.031 kg/m3 and 13.915 ± 0.031 kg/m3 | 0.01955 ± 0.00012
293.15 K, 10227 kPa | 15.922 ± 0.036 kg/m3 | 0.01957 ± 0.00012
293.15 K, 12231 kPa | 18.954 ± 0.042 kg/m3 | 0.01956 ± 0.00012
293.15 K, 14295 kPa | 21.949 ± 0.048 kg/m3 | 0.01957 ± 0.00012
293.15 K, 14296 kPa | 21.953 ± 0.048 kg/m3 | 0.01957 ± 0.00012
293.15 K, 14320 kPa | 21.908 ± 0.049 kg/m3 | 0.01959 ± 0.00012
293.15 K, 16374 kPa | 24.913 ± 0.055 kg/m3 | 0.01958 ± 0.00012
293.15 K, 18460 kPa | 27.833 ± 0.061 kg/m3 and 27.831 ± 0.061 kg/m3 | 0.0196 ± 0.00012
293.15 K, 20744 kPa | 30.973 ± 0.068 kg/m3 | 0.01963 ± 0.00012
293.15 K, 22880 kPa | 33.856 ± 0.075 kg/m3 | 0.01966 ± 0.00012
293.15 K, 22883 kPa | 33.861 ± 0.074 kg/m3 | 0.01966 ± 0.00012
293.15 K, 22973 kPa | 33.811 ± 0.074 kg/m3 | 0.01968 ± 0.00012
293.15 K, 25224 kPa | 36.797 ± 0.081 kg/m3 | 0.01972 ± 0.00012
293.15 K, 25329 kPa | 37.097 ± 0.082 kg/m3 and 37.099 ± 0.082 kg/m3 | 0.01969 ± 0.00012
293.16 K, 245.73 kPa | 0.40445 ± 0.0024 kg/m3 | 0.01958 ± 0.00012
293.16 K, 613.17 kPa | 1.0037 ± 0.003 kg/m3 | 0.01959 ± 0.00012
293.16 K, 613.18 kPa | 1.0029 ± 0.003 kg/m3 | 0.01959 ± 0.00012
293.16 K, 2447.5 kPa | 3.9693 ± 0.0092 kg/m3 and 3.9647 ± 0.0092 kg/m3 | 0.01958 ± 0.00012
293.16 K, 3742.3 kPa | 5.9974 ± 0.014 kg/m3 | 0.01958 ± 0.00012
293.16 K, 4996.2 kPa | 7.965 ± 0.018 kg/m3 | 0.01957 ± 0.00012
293.16 K, 6263.9 kPa | 9.9737 ± 0.022 kg/m3 and 9.9745 ± 0.022 kg/m3 | 0.01956 ± 0.00012
